ChEMBL document CHEMBL1143278, “3-Aminoxypropionate-based linker system for cyclization activation in prodrug design” (Bioorg Med Chem Lett, 2009)

Key:
[1] = Stability assessed as cyclization activation in phosphate buffer at pH 7.4 by HPLC; type: physicochemical
[2] = Stability assessed as cyclization activation in phosphate buffer at pH 6.0 by HPLC; type: physicochemical
[3] = Stability assessed as formation of ((2R,3S,5R)-5-(5-fluoro-2,4-dioxo-3,4-dihydropyrimidin-1(2H)-yl)-3-hydroxytetrahydrofuran-2-yl)methyl 3-(aminooxy)-2,2-dimethylpropanoate in phosphate buffer at pH 7.4 in presence of alpha-chymotrypsin; type: ADME
[4] = Stability in phosphate buffer at pH 7.4 in absence of alpha-chymotrypsin; type: ADME

half-life [1] [h] | half-life [2] [h] | t1/2 [3] [h] | Stability [4] | Compound
1.14 | 22.9 |  |  | Cl.NOCCC(=O)OC[C@H]1O[C@@H](n2cc(F)c(=O)[nH]c2=O)C[C@@H]1O
 |  | 0.608 | Stable | CC(C)(CONC(=O)[C@H](Cc1ccccc1)NC(=O)OCc1ccccc1)C(=O)OC[C@H]1O[C@@H](n2cc(F)c(=O)[nH]c2=O)C[C@@H]1O
0.722 | 23.4 |  |  | CC(C)(CON)C(=O)OC[C@H]1O[C@@H](n2cc(F)c(=O)[nH]c2=O)C[C@@H]1O.Cl
